According to patent US8299073B2, “P38 MAP kinase inhibitors” (Respivert Ltd., priority 2008, dated 2012):
Where two headings read alike, the source gives them in different places.

What was measured:
[1] = target: T1, p38 MAPK alpha (MAPK14: Invitrogen) (Homo sapiens, UniProt Q16539); test: Enzyme inhibition assay (FRET, Z-LYTE), p38 MAPK alpha, via activation of MAPKAP-K2; assay type: biochemical; details: read-out: IC50 values p38α enzyme
T1 construct: purchased Invitrogen

[2] = target: T2, recombinant, phosphorylated p38 MAPK gamma (MAPK12:Millipore) (Homo sapiens, UniProt P53778); test: Enzyme inhibition assay (FRET, Z-LYTE), p38 MAPK gamma; assay type: biochemical; details: read-out: IC50 values P38γ enzyme
T2 construct: purchased Millipore
T2 sequence (P53778 1-367): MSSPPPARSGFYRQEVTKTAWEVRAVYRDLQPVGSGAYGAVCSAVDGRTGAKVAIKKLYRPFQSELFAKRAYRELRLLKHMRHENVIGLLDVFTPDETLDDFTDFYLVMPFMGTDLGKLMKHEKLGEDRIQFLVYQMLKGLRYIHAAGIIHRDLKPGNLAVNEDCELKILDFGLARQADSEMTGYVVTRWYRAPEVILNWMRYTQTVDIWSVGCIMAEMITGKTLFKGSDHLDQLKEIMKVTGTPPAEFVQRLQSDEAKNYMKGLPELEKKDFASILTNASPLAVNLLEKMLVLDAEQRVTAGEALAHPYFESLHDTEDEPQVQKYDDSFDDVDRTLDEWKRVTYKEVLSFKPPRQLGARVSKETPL

[3] = test system: LPS-induced TNFα release in differentiated U937 cells; test: LPS-induced TNF alpha release in differentiated U937 cells; assay type: cell-based
[4] = test system: LPS-induced TNFα release in THP-1 cells; test: LPS-induced TNF alpha release in THP-1 cells; assay type: cell-based; details: Homo sapiens
[5] = test system: Differentiated U937 cells; test: MTT assay (loss of cell viability); assay type: cell-based, human; details: loss of cell viability, 10 ug/ml
[6] = Homo sapiens; read-out: R-EC50 values d-U937 cells
[7] = THP-1, LPS-induced TNFα release, read-out: IC50 values THP-1 cells

T1 sequence (Q16539 whole entry): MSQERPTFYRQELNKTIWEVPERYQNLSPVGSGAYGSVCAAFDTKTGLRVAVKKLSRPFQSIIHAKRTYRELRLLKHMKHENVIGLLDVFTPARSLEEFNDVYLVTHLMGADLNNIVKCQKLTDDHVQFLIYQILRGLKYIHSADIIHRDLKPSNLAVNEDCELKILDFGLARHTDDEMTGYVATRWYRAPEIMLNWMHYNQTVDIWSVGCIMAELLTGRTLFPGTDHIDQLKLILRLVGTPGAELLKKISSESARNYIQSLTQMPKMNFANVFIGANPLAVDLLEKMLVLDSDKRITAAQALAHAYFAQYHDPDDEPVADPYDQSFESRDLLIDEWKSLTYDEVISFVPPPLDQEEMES

Row | IC50 [1] | IC50 [2] | EC50 [3, 6] | IC50 [4, 7] | SMILES | MTT 4 hr [5] | MTT 24 hr [5] | EC50 ([3]; Homo sapiens, read-out: R-EC50 values d-U937 cells) | IC50 ([4]; THP-1, read-out: IC50 values THP-1 cells)
1 | < 10 nM | < 5000 nM | < 10 nM | < 10 nM | Cc1ccc(-n2nc(C(C)(C)C)cc2NC(=O)Nc2ccc(OCc3ccnc(NC(=O)[C@@H]4COCCN4)c3)c3ccccc23)cc1 [Example 11, (S)-N-(4-((4-(3-(3-tert-Butyl-1-p-tolyl-1H-pyrazol-5-yl)ureido)naphthalen-1-yloxy)methyl)pyridin-2-yl)morpholine-3-carboxamide] | − (− <30%) | − (− <30%) | – | –
2 | < 10 nM | < 500 nM | < 10 nM | < 500 nM | Cc1ccc(-n2nc(C(C)(C)C)cc2NC(=O)Nc2ccc(OCc3ccnc(NC(=O)N4CCOCC4)c3)c3ccccc23)cc1 [Example 13, N-(4-((4-(3-(3-tert-Butyl-1-p-tolyl-1H-pyrazol-5-yl)ureido)naphthalen-1-yloxy)methyl)pyridin-2-yl)morpholine-4-carboxamide] | − (− <30%) | − (− <30%) | – | –
3 | < 10 nM | < 500 nM | < 10 nM | < 10 nM | COCCC(=O)Nc1cc(COc2ccc(NC(=O)Nc3cc(C(C)(C)C)nn3-c3ccc(C)cc3)c3ccccc23)ccn1 [Example 14, N-(4-((4-(3-(3-tert-Butyl-1-p-tolyl-1H-pyrazol-5-yl)ureido)naphthalen-1-yloxy)methyl)pyridin-2-yl)-3-methoxypropanamide] | − (− <30%) | − (− <30%) | – | –
4 | < 500 nM | < 500 nM | < 10 nM | < 10 nM | Cc1ccc(-n2nc(C(C)(C)C)cc2NC(=O)Nc2ccc(OCc3ccnc(NC(=O)CCCN(C)C)c3)c3ccccc23)cc1 [Example 16, N-(4-((4-(3-(3-tert-Butyl-1-p-tolyl-1H-pyrazol-5-yl)ureido)naphthalen-1-yloxy)methyl)pyridin-2-yl)-4-(dimethylamino)butanamide] | + (+ >30% at 10 ug/ml) | + (+ >30% at 10 ug/ml) | – | –
5 | < 10 nM | < 500 nM | < 10 nM | < 10 nM | Cc1ccc(-n2nc(C(C)(C)C)cc2NC(=O)Nc2ccc(OCc3ccnc(NC(=O)CCS(C)(=O)=O)c3)c3ccccc23)cc1 [Example 17, N-(4-((4-(3-(3-tert-Butyl-1-p-tolyl-1H-pyrazol-5-yl)ureido)naphthalen-1-yloxy)methyl)pyridin-2-yl)-3-(methylsulfonyl)propanamide] | − (− <30%) | − (− <30%) | – | –
6 | < 500 nM | > 5000 nM | < 500 nM | < 10 nM | Cc1ccc(-n2nc(C(C)(C)C)cc2NC(=O)Nc2ccc(OCc3ccnc(NC(=O)N4CCN(S(C)(=O)=O)C4=O)c3)c3ccccc23)cc1 [Example 18, N-(4-((4-(3-(3-tert-Butyl-1-p-tolyl-1H-pyrazol-5-yl)ureido)naphthalen-1-yloxy)methyl)pyridin-2-yl)-3-(methylsulfonyl)-2-oxoimidazolidine-1-carboxamide] | − (− <30%) | − (− <30%) | – | –
7 | < 10 nM | < 500 nM | < 10 nM | < 10 nM | Cc1ccc(-n2nc(C(C)(C)C)cc2NC(=O)Nc2ccc(OCc3ccnc(NC(=O)CN4CCCC4)c3)c3ccccc23)cc1 [Example 22, N-(4-((4-(3-(3-tert-Butyl-1-p-tolyl-1H-pyrazol-5-yl)ureido)naphthalen-1-yloxy)methyl)pyridin-2-yl)-2-(pyrrolidin-1-yl)acetamide] | − (− <30%) | − (− <30%) | – | –
8 | < 10 nM | < 500 nM | < 10 nM | < 10 nM | Cc1ccc(-n2nc(C(C)(C)C)cc2NC(=O)Nc2ccc(OCc3ccnc(NC(=O)CN4CCN(C)CC4)c3)c3ccccc23)cc1 [Example 23, N-(4-((4-(3-(3-tert-Butyl-1-p-tolyl-1H-pyrazol-5-yl)ureido)naphthalen-1-yloxy)methyl)pyridin-2-yl)-2-(4-methylpiperazin-1-yl)acetamide] | + (+ >30% at 10 ug/ml) | + (+ >30% at 10 ug/ml) | – | –
9 | < 10 nM | < 500 nM | < 10 nM | < 10 nM | COCCN1CCN(CC(=O)Nc2cc(COc3ccc(NC(=O)Nc4cc(C(C)(C)C)nn4-c4ccc(C)cc4)c4ccccc34)ccn2)CC1 [Example 24, N-(4-((4-(3-(3-tert-Butyl-1-p-tolyl-1H-pyrazol-5-yl)ureido)naphthalen-1-yloxy)methyl)pyridin-2-yl)-2-(4-(2-methoxyethyl)piperazin-1-yl)acetamide] | − (− <30%) | − (− <30%) | – | –
10 | < 500 nM | < 500 nM | < 10 nM | < 10 nM | CNCC(=O)Nc1cc(COc2ccc(NC(=O)Nc3cc(C(C)(C)C)nn3-c3ccc(C)cc3)c3ccccc23)ccn1 [Example 27, N-(4-((4-(3-(3-tert-Butyl-1-p-tolyl-1H-pyrazol-5-yl)ureido)naphthalen-1-yloxy)methyl)pyridin-2-yl)-2-(methylamino)acetamide] | − (− <30%) | − (− <30%) | – | –
11 | < 500 nM | < 5000 nM | < 10 nM | < 10 nM | COc1ccc(CN(C)CC(=O)Nc2cc(COc3ccc(NC(=O)Nc4cc(C(C)(C)C)nn4-c4ccc(C)cc4)c4ccccc34)ccn2)cc1 [Example 28, N-(4-((4-(3-(3-tert-Butyl-1-p-tolyl-1H-pyrazol-5-yl)ureido)naphthalen-1-yloxy)methyl)pyridin-2-yl)-2-((4-methoxybenzyl)(methyl)amino)acetamide] | − (− <30%) | − (− <30%) | – | –
12 | < 500 nM | < 500 nM | < 10 nM | < 10 nM | COCCSCC(=O)Nc1cc(COc2ccc(NC(=O)Nc3cc(C(C)(C)C)nn3-c3ccc(C)cc3)c3ccccc23)ccn1 [Example 29, N-(4-((4-(3-(3-tert-Butyl-1-p-tolyl-1H-pyrazol-5-yl)ureido)naphthalen-1-yloxy)methyl)pyridin-2-yl)-2-(2-methoxyethylthio)acetamide] | − (− <30%) | − (− <30%) | – | –
13 | < 500 nM | < 500 nM | < 10 nM | < 10 nM | COCCOCCSCC(=O)Nc1cc(COc2ccc(NC(=O)Nc3cc(C(C)(C)C)nn3-c3ccc(C)cc3)c3ccccc23)ccn1 [Example 30, N-(4-((4-(3-(3-tert-Butyl-1-p-tolyl-1H-pyrazol-5-yl)ureido)naphthalen-1-yloxy)methyl)pyridin-2-yl)-2-(2-(2-methoxyethoxy)ethylthio)acetamide] | − (− <30%) | − (− <30%) | – | –
14 | < 500 nM | < 500 nM | < 10 nM | < 10 nM | Cc1ccc(-n2nc(C(C)(C)C)cc2NC(=O)Nc2ccc(OCc3ccnc(NC(=O)CSCCN4CCOCC4)c3)c3ccccc23)cc1 [Example 31, N-(4-((4-(3-(3-tert-Butyl-1-p-tolyl-1H-pyrazol-5-yl)ureido)naphthalen-1-yloxy)methyl)pyridin-2-yl)-2-(2-morpholinoethylthio)acetamide] | − (− <30%) | + (+ >30% at 10 ug/ml) | – | –
15 | < 10 nM | < 500 nM | < 10 nM | < 500 nM | Cc1ccc(-n2nc(C(C)(C)C)cc2NC(=O)Nc2ccc(OCc3ccnc(NC(=O)CS(=O)(=O)CCN4CCOCC4)c3)c3ccccc23)cc1 [Example 32, N-(4-((4-(3-(3-tert-Butyl-1-p-tolyl-1H-pyrazol-5-yl)ureido)naphthalen-1-yloxy)methyl)pyridin-2-yl)-2-(2-morpholinoethylsulfonyl)acetamide] | − (− <30%) | − (− <30%) | – | –
16 | < 10 nM | < 5000 nM | < 10 nM | < 10 nM | COCCN(CCOC)CC(=O)Nc1cc(COc2ccc(NC(=O)Nc3cc(C(C)(C)C)nn3-c3ccc(C)cc3)c3ccccc23)ccn1 [Example 33, 2-(Bis(2-methoxyethyl)amino)-N-(4-((4-(3-(3-tert-butyl-1-p-tolyl-1H-pyrazol-5-yl)ureido)naphthalen-1-yloxy)methyl)pyridin-2-yl)acetamide] | − (− <30%) | − (− <30%) | – | –

Row | SMILES | IC50 [1] | IC50 [2] | EC50 [3, 6] | IC50 [4, 7] | MTT 4 hr [5] | MTT 24 hr [5] | EC50 ([3]; Homo sapiens, read-out: R-EC50 values d-U937 cells) | IC50 ([4]; THP-1, read-out: IC50 values THP-1 cells)
17 | Cc1ccc(-n2nc(C(C)(C)C)cc2NC(=O)Nc2ccc(OCc3ccnc(NC(=O)N4CCN(C)CC4)c3)c3ccccc23)cc1 [Example 12, N-(4-((4-(3-(3-tert-Butyl-1-p-tolyl-1H-pyrazol-5-yl)ureido)naphthalen-1-yloxy)methyl)pyridin-2-yl)-4-methylpiperazine-1-carboxamide] | < 10 nM | < 500 nM | – | – | − (− <30%) | − (− <30%) | < 10 nM | < 10 nM
